Patent publication US20120115896A1, “ISOGENIC HUMAN CELL LINES COMPRISING MUTATED CANCER ALLELES AND PROCESS USING THE CELL LINES” (priority 2008, published 2012)
Values joined by “and” are separate entries in the source; they are usually repeats but may differ in a detail not shown here. Equal entries are not always repeated. Where two headings read alike, the source gives them in different places.

Experiments:
[1] = system: hTERT-HME1 cells carrying PIK3CA (E545K and H1047R) KI
[2] = system: hTERT-HME1 cells carrying EGFR (delE746-A750) KI
[3] = system: hTERT-HME1 DKI cells carrying PIK3CA (H1047R) and EGFR (delE746-A750)
[4] = system: hTERT-HME1 cells carrying BRAF (V600E) KI
[5] = system: hTERT-HME1 cells carrying KRAS (G13D) KI
[6] = system: hTERT-HME1 cells carrying KRAS (G13D) KI; assay: Drug assay: cell viability by ATP content (96 h), KI versus parental cells; ΔKI pharmarray analysis
[7] = system: hTERT-HME1 cells carrying BRAF (V600E) KI; assay: as above
[8] = system: hTERT-HME1 cells carrying PIK3CA (E545K and H1047R) KI; assay: Drug assay: cell viability by ATP content (96 h) and Hoechst/propidium iodide staining, KI versus parental cells; ΔKI pharmarray analysis
[9] = system: hTERT-HME1 cells carrying EGFR (delE746-A750) KI; assay: Drug assay: cell viability by ATP content (CellTiter-Glo, 96 h), KI versus parental cells; ΔKI pharmarray analysis
[10] = system: hTERT-HME1 DKI cells carrying PIK3CA (H1047R) and EGFR (delE746-A750); assay: Drug assay: cell viability by ATP content (96 h), DKI versus parental cells; ΔKI pharmarray analysis

## CC(C)=CCc1c(O)cc(O)c2c1O[C@H](c1ccc(O)cc1)CC2=O [8-Prenylnaringenin]
[1]; Log(M) −3.20
  ΔKI PIK3CA: 0.02
[1]; Log(M) −3.68
  ΔKI PIK3CA: 0
[2]; Log(M) −3.20
  ΔKI EGFR: 0
[2]; Log(M) −3.68
  ΔKI EGFR: 1.16
[3]; Log(M) −3.20
  ΔKI PIK3CA + EGFR: 0.02
[3]; Log(M) −3.68
  ΔKI PIK3CA + EGFR: 1.52
[4]; Log(M) −3.20
  ΔKI BRAF: 0.02
[4]; Log(M) −3.68
  ΔKI BRAF: 0.88
[5]; Log(M) −3.20
  ΔKI KRAS: 0.02
[5]; Log(M) −3.68
  ΔKI KRAS: 0

## O=c1cc(-c2ccc(O)cc2)oc2cc(O)cc(O)c12 [Apigenin]
[1]; Log(M) −4.40
  ΔKI PIK3CA: 0
[1]; Log(M) −4.70
  ΔKI PIK3CA: 0
[1]; Log(M) −5.00
  ΔKI PIK3CA: 0
[2]; Log(M) −4.40
  ΔKI EGFR: 0
[2]; Log(M) −4.70
  ΔKI EGFR: 0
[2]; Log(M) −5.00
  ΔKI EGFR: 0
[3]; Log(M) −4.40
  ΔKI PIK3CA + EGFR: 0
[3]; Log(M) −4.70
  ΔKI PIK3CA + EGFR: 0
[3]; Log(M) −5.00
  ΔKI PIK3CA + EGFR: 0
[4]; Log(M) −4.40
  ΔKI BRAF: −3.18
[4]; Log(M) −4.70
  ΔKI BRAF: −2.32
[4]; Log(M) −5.00
  ΔKI BRAF: 0
[5]; Log(M) −4.40
  ΔKI KRAS: 0
[5]; Log(M) −4.70
  ΔKI KRAS: 0
[5]; Log(M) −5.00
  ΔKI KRAS: 0

## C[C@]12CC[C@@H]3c4ccc(O)cc4C[C@@H](CCCCCCCCC[S+]([O-])CCCC(F)(F)C(F)(F)F)[C@H]3[C@@H]1CC[C@@H]2O (stereo partly shown) [Fulvestrant]
[3]; Log(M) −4.05
  ΔKI PIK3CA + EGFR: 0
[3]; Log(M) −4.52
  ΔKI PIK3CA + EGFR: 0
[3]; Log(M) −5.00
  ΔKI PIK3CA + EGFR: 0

## O=c1cc(N2CCOCC2)oc2c(-c3ccccc3)cccc12 [LY294002, LY 294002]
[1]; Log(M) −5.10
  ΔKI PIK3CA: 3.62

## CO[C@H]1C[C@@H]2CC[C@@H](C)[C@@](O)(O2)C(=O)C(=O)N2CCCC[C@H]2C(=O)O[C@H]([C@H](C)C[C@@H]2CC[C@@H](O)[C@H](OC)C2)CC(=O)[C@H](C)/C=C(\C)[C@@H](O)[C@@H](OC)C(=O)[C@H](C)C[C@H](C)/C=C/C=C/C=C/1C [rapamycin, Rapamycin]
[3]; Log(M) −5.40
  ΔKI PIK3CA + EGFR: 1.22
[3]; Log(M) −6.40
  ΔKI PIK3CA + EGFR: 0
[3]; Log(M) −7.40
  ΔKI PIK3CA + EGFR: 1.6
[3]; Log(M) −8.40
  ΔKI PIK3CA + EGFR: 0
[3]; Log(M) −9.40
  ΔKI PIK3CA + EGFR: 0.66
[3]; Log(M) −10.40
  ΔKI PIK3CA + EGFR: 0

## Sodium Phenylbutyrate
[6]; Log(M) −1.97
  ΔKI KRAS: 0
[6]; Log(M) −2.44
  ΔKI KRAS: 0
[6]; Log(M) −2.92
  ΔKI KRAS: 0
[7]; Log(M) −1.97
  ΔKI BRAF: 0
[7]; Log(M) −2.44
  ΔKI BRAF: 0
[7]; Log(M) −2.92
  ΔKI BRAF: 0
[8]; Log(M) −1.97
  ΔKI PIK3CA: 0
[8]; Log(M) −2.44
  ΔKI PIK3CA: 0
[8]; Log(M) −2.92
  ΔKI PIK3CA: 0
[9]; Log(M) −1.97
  ΔKI EGFR: 0
[9]; Log(M) −2.44
  ΔKI EGFR: 0
[9]; Log(M) −2.92
  ΔKI EGFR: 0
[10]; Log(M) −1.97
  ΔKI PIK3CA + EGFR: 0
[10]; Log(M) −2.44
  ΔKI PIK3CA + EGFR: 0
[10]; Log(M) −2.92
  ΔKI PIK3CA + EGFR: 0

## Tamoxifene Citrate
[6]
  ΔKI KRAS: 0
[6]; Log(M) −4.75
  ΔKI KRAS: 0
[6]; Log(M) −5.35
  ΔKI KRAS: 0
[7]
  ΔKI BRAF: 0
[7]; Log(M) −4.75
  ΔKI BRAF: 0
[7]; Log(M) −5.35
  ΔKI BRAF: 0
[8]; Log(M) −4.75
  ΔKI PIK3CA: 0
[8]; Log(M) −5.35
  ΔKI PIK3CA: 0.9
[9]
  ΔKI EGFR: 0
[9]; Log(M) −4.75
  ΔKI EGFR: 0
[9]; Log(M) −5.35
  ΔKI EGFR: −0.54
[10]
  ΔKI PIK3CA + EGFR: 0.96 and 0.78
[10]; Log(M) −4.75
  ΔKI PIK3CA + EGFR: 0
[10]; Log(M) −5.35
  ΔKI PIK3CA + EGFR: −0.92
